Earlier results as cited in patent US20250312405A1, “FOOD SUPPLEMENT COMPRISING NEOHESPERIDIN DIHYROCHALCONE AND PEPPERMINT OIL” (priority 2022, published 2025).

Columns and labels:
Campylobacter jejuni [1] = conditions: doses of 0.25 mM
Campylobacter jejuni [2] = conditions: dose of 0.2 mM
[3] = test system: HT-29 cells co-cultured with immune cells; conditions: doses of 50 μmoles

Row | SMILES | effect on the motility of Campylobacter jejuni (Campylobacter jejuni [1]) | cell invasion (Campylobacter jejuni [2]) | immune-induced epithelial disfunction by Campylobacter jejuni [3]
1 | Cc1ccc(C(C)C)cc1O [carvacrol] | had an effect on the motility | reduced cell invasion | –
2 | COc1cc(/C=C/C(=O)CC(=O)/C=C/c2ccc(O)c(OC)c2)ccc1O [curcumin] | – | – | mitigates the immune-induced epithelial disfunction
